Measured values taken from paper PMC11350758, “Development of Xanthoangelol-Derived Compounds with Membrane-Disrupting Effects against Gram-Positive Bacteria” (Antibiotics, 2024).
Converted amounts (≈) assume the structure as drawn. Where two headings read alike, the source gives them in different places.

Legend:
[1] = test system: Gram-positive strains tested; assay: MIC, summary over the Gram-positive strains tested; type: cell-based; details: read-out: MICs against the Gram-positive strains tested, range over the Gram-positive panel
Description: (§1) All target derivatives were assessed for their in vitro antibacterial activities using a broth microdilution assay to test their minimum inhibitory concentrations (MICs) against six Gram-positive strains (S. aureus ATCC31007, S. aureus ATCC25923, S. aureus ATCC43300, E. faecalis ATCC29212, B. subtilis ATCC9372, and S. epidermidis ATCC12228) and four Gram-negative strains (A. baumannii ATCC19606, K. pneumonia ATCC10031, E. coli ATCC25922, and P. aeruginosa ATCC27853). These compounds were also evaluated for their hemolytic activities and membrane selectivity by determining their HC50 (the concentration required to lyse 50% of red blood cells) and SI (HC50/MICs) values, respectively, and vancomycin was used as the positive drug.
(§2) MICs of the derivatives were determined by the micro broth dilution method according to the American Clinical and Laboratory Standards Institute (CLSI) standards. Briefly, 2-fold serial dilutions of target compounds were prepared in 96-well plates containing TSB broth. An equal volume of bacterial suspension (10^6 CFU/mL) was then pipetted into each well, and the mixture was incubated at 37 °C for 24 h. […] All biological experiments were repeated three times.

S. aureus ATCC43300 [2] = assay: Bactericidal time-kill assay; type: cell-based; details: 8× MIC, 16 μg/mL
Description: Natural AMPs have rapid bactericidal properties, and in order to examine whether active compound 9h have similar rapid bactericidal properties, the time-kill kinetics of 9h were carried out to test the bactericidal action against S. aureus ATCC4330 at four different concentrations.
S. aureus ATCC43300 was cultured at 37 °C for 6 h and diluted to 1×10^6 CFU/mL. […] At each time point, the bacterial suspension (20 μL) was diluted in PBS, and the number of bacterial colonies was measured. All biological experiments were repeated three times.

S. aureus ATCC43300 [3] = assay: Resistance development assay (serial passage); type: cell-based; details: serial passage at 1/2 MIC for 20 days
Description: The rapid increase in bacterial resistance to antibiotics is a major challenge in clinical treatment, and in order to assess the drug resistance development for compound 9h, we performed a drug resistance assay against S. aureus ATCC43300. Norfloxacin was selected as the positive control. The S. aureus cells were incubated with sub-MIC (1/2 MIC) concentration of compound 9h and were serially passaged for a duration of 20 days.
Resistance was defined as a more than 4-fold increase in the tested compound in MIC when compared to the beginning value. Briefly, S. aureus ATCC43300 was cultured (37 °C, 200 rpm) in MHB broth for 5 h and diluted to 1 × 10^6 CFU/mL. Then, the bacteria were cultured with compound 9h at a sub-MIC concentration (1/2 MIC) for 18 h. The MICs were determined according to this method for consecutive 20 days. All biological experiments were repeated three times.

red blood cells = assay: Hemolysis assay; type: cell-based, Sheep; details: concentration required to lyse 50% of red blood cells; 37 °C, 1 h
Description: as §1
To further detect the hemolytic toxicity and therapeutic potential of these derivatives, we proceeded to examine the hemolytic activities and membrane selectivity of these derivatives. The HC50 value was defined as the concentration needed for a compound to lyse 50% of red blood cells, and it is often used to evaluate the hemolytic toxicity to eukaryotic cells. […] The selectivity index (SI) was calculated by HC50/MICs of S. aureus ATCC43300 and was used to assess the potency and safety of the compounds. […] Thus, compound 9h was selected as a representative molecule for the in-depth in vitro and in vivo studies.
Sheep blood was used to isolate red blood cells (RBCs), which were then resuspended in 1× PBS (5%). The compounds were dissolved in PBS to give an initial concentration of 5.12 mg/mL, compound solution (100 μL) was added to the first well of a 96-well plate, two-fold serial dilutions of compounds were prepared in 96-well plates, and then 150 μL of 5% RBC suspension was added to each well. This was followed by incubation at 37 °C for 1 h. After incubation, the plate was centrifuged (3500 rpm, 5 min), and 100 μL of supernatant solution from each well was carefully pipetted into a new plate. The absorbance values were measured at 540 nm. Erythrocyte hemolysis rate = (Absorbancecompound – Absorbance negative control)/(Absorbance1% Triton X-100 − Absorbance negative control) × 100%. All biological experiments were repeated three times.

[4] = test system: Gram-negative bacteria tested; assay: MIC, summary over the Gram-negative bacteria tested; type: cell-based; details: read-out: MICs against the Gram-negative bacteria tested
Description: as §1, §2

[5] = test system: Staphylococcus aureus ATCC43300, methicillin-resistant strain; assay: microbe, parasite or virus in culture; type: cell-based; details: ATCC 43300 / MRSA; Staphylococcus aureus ATCC43300 (MRSA); read-out: MIC S. a 43300
Outline: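 Bacteria (suspension at 10^6 CFU/mL, mixed in equal volume) were exposed to twofold serially diluted compounds in TSB broth at 37 °C for 24 h to give minimum inhibitory concentrations. All tests were run three times.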

[6] = test system: preformed S. aureus ATCC43300 biofilm; assay: Biofilm disruption assay (crystal violet); type: cell-based; details: biofilm grown for 24 h
Description: Bacterial biofilms created by the aggregation of bacteria is considered as one of the main reasons for the development of drug resistance. […] Subsequently, we further assessed the efficiency of 9h to eradicate the preformed biofilm. Matured S. aureus biofilm (grown for 24 h) was treated with compound 9h, and the rate of biofilm disruption was then assessed by the crystal violet staining assay.
Biofilm disruption: Briefly, S. aureus ATCC43300 (1 × 10^6 CFU/mL) was incubated in 96-well plates for 24 h to create biofilms. Next, the planktonic supernatant cells were removed. […] Then, the treated biofilm was determined by crystal violet assay. The OD values were measured at 575 nm. Biofilm disruption (%) = (ODcompound − ODblank)/(ODpositive control − ODblank) × 100%. All biological experiments were repeated three times.

S. aureus ATCC4330 = assay: microbe, parasite or virus in culture; type: cell-based; details: Staphylococcus aureus, read-out: MBC
Description: Due to the presence of various biological enzymes in plasma, natural AMPs are susceptible to enzymatic degradation upon entering the bloods, leading to a loss of their antimicrobial activity. To evaluate the plasma stability of active compound 9h, we conducted a stability assay by determining their MBC (minimum bactericidal concentration) values in plasma and different blood components. […] The observed initial increase in the MBC value, followed by remaining unchanged, could potentially be attributed to the initial binding of compound 9h with plasma proteins, causing a reduction in its activity. Once this binding became saturated, the bactericidal activity of the compound remained stable, further indicating the good stability of compound 9h in plasma.
MBCs of the compounds were tested. Furthermore, MBCs of compounds in 50% plasma, 50% serum, and 50% blood suspension were tested. The MBC value is defined as the concentration at which the colony count is less than 5 after 18 h of incubation at 37 °C. All biological experiments were repeated three times.

Q: For `CC(=O)c1c(OCCCNCCCN2CCN(C)CC2)c2c(c3c1OC(C)(CCC=C(C)C)C=C3)OC(C)(CCC=C(C)C)C=C2` (stereo not drawn) [Compound 9h, 1-(2,8-Dimethyl-2,8-bis(4-methylpent-3-en-1-yl)-5-(3-((3-(4-methylpiperazin-1-yl)propyl)amino)propoxy)-2H,8H-pyrano [2,3-f]chromen-6-yl)ethan-1-one], which MIC [1] is on record?
A: Its MIC is 0.5 to 8 µg/mL (≈ 0.789 to 12.6 µM).

Q: And the “time to complete bacterial killing” value (S. aureus ATCC43300 [2])?
A: The value was 4 h.

Q: And the “killing of S. aureus” value (S. aureus ATCC43300 [2]; within 1 h)?
A: Its value is ≥ 99.9%.

Q: And the “colony-forming unit (CFU) reduction” value (S. aureus ATCC43300 [2]; within 1 h, compared with the control)?
A: Its value is 5.95 log.

Q: And the “fold increase in MIC” value (S. aureus ATCC43300 [3])?
A: The value was ≤ 4 fold.

Q: What about the HC50 (red blood cells) of the same compound?
A: Its HC50 is 98.0 µg/mL.

Q: And the MIC [4]?
A: The MIC was 4 to 16 µg/mL (≈ 6.31 to 25.2 µM).

Q: And the MIC [5]?
A: The MIC was 2 µg/mL (≈ 3.15 µM).

Q: What about the “eradication of preformed S. aureus biofilm” value ([6]; 8 μg/mL) of the same compound?
A: The value was “about 19.83%”.

Q: And the “eradication of preformed S. aureus biofilm” value ([6]; 1× MIC (2 μg/mL))?
A: Its value is 11.65%.

Q: And the MBC (S. aureus ATCC4330; ATCC4330, dissolved in Mueller Hinton broth (MHB))?
A: Its MBC is 16 µg/mL (≈ 25.2 µM).

Q: What about the MBC (S. aureus ATCC4330; ATCC4330, in 50% blood (Figure 3B)) of the same compound?
A: Its MBC is 32 µg/mL (≈ 50.5 µM).

Q: And the MBC (S. aureus ATCC4330; ATCC4330, in 50% plasma (Figure 3B))?
A: Its MBC is 32 µg/mL (≈ 50.5 µM).

Q: What about the MBC (S. aureus ATCC4330; ATCC4330, in 50% serum (Figure 3B)) of the same compound?
A: The MBC was 32 µg/mL (≈ 50.5 µM).

Q: What about the MBC (S. aureus ATCC4330; ATCC4330, treatment with 50% plasma, unchanged after 3 and 6 h preincubation (Figure 3A)) of the same compound?
A: The MBC was 32 µg/mL (≈ 50.5 µM).
